From PMC12045974, “T cell toxicity induced by tigecycline binding to the mitochondrial ribosome” (Nature Communications, 2025)
Where “and” joins values, the source holds several entries; their conditions need not be identical. Equal entries are not always repeated.

Assays:
HeLa cells = assay: Cell viability assay (CCK-8), HeLa cells; format: cell-based; settings: Hela, in % (unit assumed)
Method: (§1) Cells were seeded in 96-well plates ranging from 2000 to 15,000 cells per well depending on different cell lines and treated with antibiotics in serial dilutions for 72 h (120 h for the preliminary assays) in a humidified incubator (37 °C, 5% CO2) in 100 μl medium (DMEM with 10% FBS, 2.05 mM L-glutamine (Sigma) for Hek293 and Hela; RPMI-1640 with 10% FBS, 2.05 mM L-glutamine (Sigma), and 55 μM 2-ME (Gibco) for Jurkat T cells and PBMCs). Based on preliminary tests, the number of cells per well was optimized to 2000 for Hela and Hek293, 6000 for Jurkat T cells, and 15,000 for PBMCs. The stocks of antibiotics were prepared by dissolving in DMSO. As control, the same amount of DMSO was added to the non-treated groups. Serial drug dilutions were prepared in the corresponding medium to provide a total of 9 concentrations up to 300 μM for tetracyclines and up to 900 μM for additional bacterial protein synthesis inhibitors. After drug treatment, 10% CCK-8 (Cell Counting Kit-8, Sigma Aldrich) (10 μl per well) of the total volume was added to the cells and incubated for 1–4 h depending on cell lines (1 h for Hela and Hek293; 3 h for Jurkat T cells; 4 h for PBMCs) before the evaluation of the effect of antibiotics on cell viability. […] Results were visually confirmed under the light microscope. Each treatment was performed in technical repeats. Dose-response curves were plotted, mean ± SEM was shown, and half maximal inhibitory concentration (IC50) values were calculated in GraphPad Prism.

Jurkat T cells = assay: Cell viability assay (CCK-8), Jurkat T cells; format: cell-based, human; settings: Jurkat, in % (unit assumed)
Method: as §1

Hek293 cells = assay: Cell viability assay (CCK-8), Hek293 cells; format: cell-based, human; settings: in % (unit assumed)
Method: as §1

PBMCs = assay: Cell viability assay (CCK-8), PBMCs; format: cell-based, human; settings: PBMCs, 72 h, Fig. 1A, in % (unit assumed)
Method: as §1, with “Buffy coats were ordered from anonymous blood donors at […]. […] Cells” for “Cells”, “1-4” for “1–4”

Row | Compound | cell vialibity normalized to Vehicle (DMSO) (HeLa cells; dose 0.137174 μM) | cell vialibity normalized to Vehicle (DMSO) (HeLa cells; dose 0.411523 μM) | cell vialibity normalized to Vehicle (DMSO) (HeLa cells; dose 1.23457 μM) | cell vialibity normalized to Vehicle (DMSO) (HeLa cells; dose 3.7037 μM) | cell vialibity normalized to Vehicle (DMSO) (HeLa cells; dose 11.1111 μM) | cell vialibity normalized to Vehicle (DMSO) (HeLa cells; dose 33.3333 μM) | cell vialibity normalized to Vehicle (DMSO) (HeLa cells; dose 100 μM) | cell vialibity normalized to Vehicle (DMSO) (HeLa cells; dose 300 μM) | cell vialibity normalized to Vehicle (DMSO) (HeLa cells; dose 900 μM) | cell vialibity normalized to Vehicle (DMSO) (Jurkat T cells; dose 0.137174 μM) | cell vialibity normalized to Vehicle (DMSO) (Jurkat T cells; dose 0.411523 μM) | cell vialibity normalized to Vehicle (DMSO) (Jurkat T cells; dose 1.23457 μM) | cell vialibity normalized to Vehicle (DMSO) (Jurkat T cells; dose 3.7037 μM) | cell vialibity normalized to Vehicle (DMSO) (Jurkat T cells; dose 11.1111 μM) | cell vialibity normalized to Vehicle (DMSO) (Jurkat T cells; dose 33.3333 μM) | cell vialibity normalized to Vehicle (DMSO) (Hek293 cells; HEK293, dose 0.137174 μM) | cell vialibity normalized to Vehicle (DMSO) (Hek293 cells; HEK293, dose 0.411523 μM) | cell vialibity normalized to Vehicle (DMSO) (Hek293 cells; HEK293, dose 1.23457 μM) | cell vialibity normalized to Vehicle (DMSO) (Hek293 cells; HEK293, dose 11.1111 μM) | cell vialibity normalized to Vehicle (DMSO) (Hek293 cells; HEK293, dose 33.3333 μM) | further results
1 | C[C@H]1c2cccc(O)c2C(=O)C2=C(O)[C@]3(O)C(=O)C(C(N)=O)=C(O)[C@@H](N(C)C)[C@@H]3[C@@H](O)[C@@H]21 [DOX] | 99.8907 | 100.467 and 99.0837 | 99.4691 and 99.9582 | 100.07 and 93.5237 | 94.9721 and 92.1866 | 96.9079 and 96.5877 | 97.8134 and 89.7632 | 79.6379 and 78.468 | 4.838 and 4.476 | 94.1176 and 108.66 | 95.2614 and 97.0588 | 97.7941 and 96.1601 | 99.2647 and 106.127 | 82.9248 and 78.6765 | 10.049 and 10.3758 | 97.7577 and 100.716 | 94.3943 and 94.2074 | 85.067 and 89.3024 | 79.6792 and 82.0461 | 56.1352 and 52.9274 | cell vialibity normalized to Vehicle (DMSO) (Jurkat T cells; dose 100 μM): 2.696 and 3.35; cell vialibity normalized to Vehicle (DMSO) (Hek293 cells; HEK293, dose 3.7037 μM): 85.4718 and 85.9078; cell vialibity normalized to Vehicle (DMSO) (Hek293 cells; HEK293, dose 100 μM): 25.8642 and 25.3348; cell vialibity normalized to Vehicle (DMSO) (Hek293 cells; HEK293, dose 300 μM): 21.3952 and 21.8001; cell vialibity normalized to Vehicle (DMSO) (Hek293 cells; HEK293, dose 900 μM): 5.254 and 4.351
2 | CN(C)c1cc(NC(=O)CNC(C)(C)C)c(O)c2c1C[C@H]1C[C@H]3[C@H](N(C)C)C(O)=C(C(N)=O)C(=O)[C@@]3(O)C(O)=C1C2=O [TIGE] | 99.0957 and 99.8329 | 99.7643 and 100.836 | 95.2089 and 96.0446 | 96.0724 and 96.0446 | 92.3538 and 93.0501 | 92.3816 and 88.3426 | 85.5606 and 88.2068 | 79.8329 and 79.3036 | 37.2702 and 29.1086 | 84.3137 and 94.7712 | 86.6013 and 87.2549 | 80.8824 and 75.3268 | 47.0588 and 43.6275 | 16.7484 and 17.0752 | 6.618 and 5.964 | 102.411 and 106.702 | 106.064 and 102.447 | 90.2128 and 81.4539 | 38.3156 and 41.7553 | 48.1383 and 50.0177 | cell vialibity normalized to Vehicle (DMSO) (Hek293 cells; HEK293, dose 100 μM): 40.2704 and 46.6888; cell vialibity normalized to Vehicle (DMSO) (Hek293 cells; HEK293, dose 300 μM): 31.6312 and 31.5248; cell vialibity normalized to Vehicle (DMSO) (Hek293 cells; HEK293, dose 900 μM): 7.2695 and 4.539
3 | oxycycline | – | – | – | – | – | – | – | – | – | – | – | – | – | – | – | – | – | – | – | – | cell vialibity normalized to Vehicle (DMSO) (Jurkat T cells; 72 h, dose 0.0457247 μM, Fig. 1A): 95.9551 and 99.8266 and 111.591; cell vialibity normalized to Vehicle (DMSO) (Jurkat T cells; 72 h, dose 0.137174 μM, Fig. 1A): 122.921 and 100.043 and 106.21; cell vialibity normalized to Vehicle (DMSO) (Jurkat T cells; 72 h, dose 1.23457 μM, Fig. 1A): 104.27 and 99.6099 and 104.508; cell vialibity normalized to Vehicle (DMSO) (Jurkat T cells; 72 h, dose 3.7037 μM, Fig. 1A): 87.8652 and 92.4577 and 103.45; cell vialibity normalized to Vehicle (DMSO) (Jurkat T cells; 72 h, dose 11.1111 μM, Fig. 1A): 101.124 and 98.0061 and 123.919; cell vialibity normalized to Vehicle (DMSO) (Jurkat T cells; 72 h, dose 33.3333 μM, Fig. 1A): 92.809 and 101.734 and 114.305; cell vialibity normalized to Vehicle (DMSO) (Jurkat T cells; 72 h, dose 100 μM, Fig. 1A): 28.8764 and 25.2276 and 26.6329; cell vialibity normalized to Vehicle (DMSO) (Jurkat T cells; 72 h, dose 300 μM, Fig. 1A): 15.1685 and 10.4898 and 12.0515; cell vialibity normalized to Vehicle (DMSO) (PBMCs; dose 0.0457247 μM): 99.5117 and 100.066 and 89.1698 and 120.008 and 102.707; cell vialibity normalized to Vehicle (DMSO) (PBMCs; dose 0.137174 μM): 101.938 and 102.097 and 92.5408 and 113.339 and 130.667; cell vialibity normalized to Vehicle (DMSO) (PBMCs; dose 0.411523 μM): 93.1002 and 107.019 and 97.4538 and 111.081 and 113.453; cell vialibity normalized to Vehicle (DMSO) (PBMCs; dose 1.23457 μM): 93.4625 and 104.955 and 100.95 and 107.767 and 104.422; cell vialibity normalized to Vehicle (DMSO) (PBMCs; dose 3.7037 μM): 87.0825 and 89.8101 and 98.4579 and 106.835 and 106.22; cell vialibity normalized to Vehicle (DMSO) (PBMCs; dose 11.1111 μM): 86.2319 and 86.9364 and 102.905 and 107.27 and 113.598; cell vialibity normalized to Vehicle (DMSO) (PBMCs; dose 33.3333 μM): 84.2313 and 84.0462 and 91.6801 and 95.3397 and 99.442
